Read-outs that look alike come from different tables or passages of the source.
Key:
[1] = 23Na-NMR sodium sensing (shiftability and broadening); assay type: physicochemical; settings: 150 mM NaCl; for Shiftability (Sc): negative = downfield, positive = upfield from unshifted sodium signal
Excerpt: (§1) The synthesized complexes are characterized for water proton relaxivities with different concentrations of complexes, as well as their proton sensing (with BIRDS and CEST) and sodium sensing (with ^23Na-MRSI) properties on a Bruker AVANCE III HD 500 vertical-bore spectrometer (Bruker, Billerica, MA, USA) interfaced with Bruker TopSpin v3.2 software.
Sodium-23 (^23Na), which has 100% natural abundance, is also visible by magnetic resonance (I=3/2) and provides the second-strongest signal among biological ions after proton. […] Sodium (Na^+) concentration is normally low intracellularly (~10 mM) and high in blood and extracellular spaces (~150 mM), producing a strong transmembrane Nat gradient (ΔNa^+mem≈140 mM) and a weak transendothelial Na^+ gradient (ΔNa^+end≈0 mM). Distributions of sodium ion (Na^+) across biological membranes are tightly regulated, and thus variations of Nat across compartments often imply pathological states.
In vitro experiments are performed using concentric NMR tubes (spherical and cylindrical; Wilmad-LabGlass, Vineland, NJ, USA). One compartment (inner) contained 150 mM NaCl and the other (outer) contained the same but with varying amounts of transition metal complexes and 10% v/v ^2H2O to lock the spectrometer frequency using the ^2H2O signal. Each solution is pH-adjusted using HCl or KOH to give five different pH values. ^23Na-NMR spectra are collected on the same Bruker system as for ^1H NMR. […] Spectra are analyzed applying 10 Hz line broadening and manual zeroth- and first-order phasing. The chemical shift and line width of the shifted peak are measured using the “peakw” function on TopSpin.

[2] = BIRDS characterization: pH and temperature sensitivity of non-exchangeable (and -NH) proton chemical shifts by 1H NMR; assay type: physicochemical; settings: for T sensitivity, -NH proton: -NH proton (exchangeable), 298 K to 318 K
Method: as §1
The chemical shifts of proton resonances are measured relative to the water resonance (4.7 ppm). Temperature and pH sensitive non-exchangeable proton resonances in each complex are chosen for BIRDS detection. The temperature and pH dependences of proton chemical shifts are fitted to second-order polynomial equations:
δ=a+b pH+cT+dpH^2+eT^2+f pHT Eq. 1
Where, the coefficients a-f are obtained from the fit. The relaxation times (T1 and T2) of these resonances are measured at 35 °C using typical inversion-recovery and spin-echo methods, respectively.

[3] = reported value, cited from earlier work; for Shiftability (Sc): negative = downfield, positive = upfield from unshifted sodium signal
[4] = literature value, cited from earlier work
[5] = 10 mM, pH 6.2-8.0, 298 K to 318 K, 11.7 T
[6] = proton B, 10 mM, pH 6.2-8.0, 298 K to 318 K, 11.7 T
[7] = proton A (@56), comparator thulium complex
[8] = proton B (@23), comparator thulium complex
[9] = proton C (@-20), comparator thulium complex

O=P(O)(O)CN1CCN(CP(=O)(O)O)CCN(CP(=O)(O)O)CCN(CP(=O)(O)O)CC1.[Co+2] [CODOTP^6-]
Broadening (βc) [1]: 0.016 ppm/mM
Shiftability (Sc) [1]: -0.207 ppm/mM
T sensitivity, non-exchangeable proton A [2, 5]: 0.434 ppm/° C.
pH sensitivity, non-exchangeable proton A [2, 5]: 6.0 ppm/pH unit
T sensitivity, non-exchangeable proton B [2, 6]: 0.234 ppm/° C.
pH sensitivity, non-exchangeable proton B [2, 6]: 1.42 ppm/pH unit
T sensitivity, non-exchangeable proton C [2, 5]: 0.186 ppm/° C.

O=P(O)(O)CN1CCN(CP(=O)(O)O)CCN(CP(=O)(O)O)CC1.[Co+2] [CONOTP^4-]
Broadening (βc) [1]: 0.013 ppm/mM
Shiftability (Sc) [1]: +0.140 ppm/mM
T sensitivity, non-exchangeable proton A [2, 5]: 0.948 ppm/° C.
pH sensitivity, non-exchangeable proton A [2, 5]: 6.20 ppm/pH unit

O=C(CN1CCN(CC(=O)NCP(=O)(O)O)CCN(CC(=O)NCP(=O)(O)O)CCN(CC(=O)NCP(=O)(O)O)CC1)NCP(=O)(O)O.[Co+2] [CoDOTA-4AMP^6-]
Broadening (βc) [1]: 0.022 ppm/mM
Shiftability (Sc) [1]: -0.172 ppm/mM
T sensitivity, -NH proton ([2]; 11.7 T): 0.161 ppm/° C.
T sensitivity, non-exchangeable proton A [2, 5]: 0.576 ppm/° C.

O=C(CN1CCN(CC(=O)NCP(=O)(O)O)CCN(CC(=O)NCP(=O)(O)O)CCN(CC(=O)NCP(=O)(O)O)CC1)NCP(=O)(O)O.[Fe+2] [FeDOTA-4AMP^6-]
Broadening (βc) [1]: 0.020 ppm/mM
Shiftability (Sc) [1]: -0.477 ppm/mM
T sensitivity, -NH proton ([2]; 11.7 T): 0.158 ppm/° C.
T sensitivity, non-exchangeable proton A [2, 5]: 0.413 ppm/° C.
T sensitivity, non-exchangeable proton E ([2]; proton E, 10 mM, pH 6.2-8.0, 298 K to 318 K, 11.7 T): -0.306 ppm/° C.

O=P(O)(O)CN1CCN(CP(=O)(O)O)CCN(CP(=O)(O)O)CCN(CP(=O)(O)O)CC1.[Fe+2] [FeDOTP^6-]
Broadening (βc) [1]: 0.023 ppm/mM
Shiftability (Sc) [1]: +0.688 ppm/mM
T sensitivity, non-exchangeable proton A [2, 5]: 0.345 ppm/° C.
T sensitivity, non-exchangeable proton B [2, 6]: 0.130 ppm/° C.
T sensitivity, non-exchangeable proton C [2, 5]: 0.045 ppm/° C.

O=P(O)(O)CN1CCN(CP(=O)(O)O)CCN(CP(=O)(O)O)CC1.[Fe+2] [FeNOTP^4-]
Broadening (βc) [1]: 0.015 ppm/mM
Shiftability (Sc) [1]: +0.318 ppm/mM
T sensitivity, non-exchangeable proton A [2, 5]: 0.240 ppm/° C.
T sensitivity, non-exchangeable proton B [2, 6]: 0.149 ppm/° C.

O=P(O)(O)CN1CCN(CP(=O)(O)O)CCN(CP(=O)(O)O)CCN(CP(=O)(O)O)CC1.[Gd+3] [GdDOTP^5-]
Broadening (βc) [3]: 0.036 ppm/mM
Shiftability (Sc) [3]: -0.040 ppm/mM

O=P(O)(O)CN1CCN(CP(=O)(O)O)CCN(CP(=O)(O)O)CC1.[Gd+3] [GdNOTP^3-]
Broadening (βc) [3]: 0.0117 ppm/mM
Shiftability (Sc) [3]: -0.0435 ppm/mM

O=C(CN1CCN(CC(=O)NCP(=O)(O)O)CCN(CC(=O)NCP(=O)(O)O)CCN(CC(=O)NCP(=O)(O)O)CC1)NCP(=O)(O)O.[Tm+3] [TmDOTA-4AMP^5-]
T sensitivity, non-exchangeable proton H1 ([4]; proton H1): 0.54 ppm/° C.
pH sensitivity, non-exchangeable proton H1 ([4]; proton H1): 1.8 ppm/pH unit
T sensitivity, non-exchangeable proton H2 [4]: -0.24 ppm/° C.
pH sensitivity, non-exchangeable proton H2 [4]: -0.63 ppm/pH unit
T sensitivity, non-exchangeable proton H3 [4]: -0.188 ppm/° C.
pH sensitivity, non-exchangeable proton H3 [4]: -0.25 ppm/pH unit
T sensitivity, non-exchangeable proton H4 ([4]; proton H4): -1.49 ppm/° C.
pH sensitivity, non-exchangeable proton H4 ([4]; proton H4): -3.9 ppm/pH unit
T sensitivity, non-exchangeable proton H6 [4]: 0.45 ppm/° C.
pH sensitivity, non-exchangeable proton H6 [4]: 1.2 ppm/pH unit
T sensitivity, non-exchangeable proton H8 ([4]; proton H8): 0.170 ppm/° C.
pH sensitivity, non-exchangeable proton H8 ([4]; proton H8): -4.0 ppm/pH unit

O=P(O)(O)CN1CCN(CP(=O)(O)O)CCN(CP(=O)(O)O)CCN(CP(=O)(O)O)CC1.[Tm+3] [TmDOTP^5-]
Broadening (βc) [3]: 0.042 ppm/mM
Shiftability (Sc) [3]: -2.03 ppm/mM
T sensitivity, non-exchangeable proton H2 [4]: -0.6 ppm/° C.
pH sensitivity, non-exchangeable proton H2 [4]: 4.2 ppm/pH unit
T sensitivity, non-exchangeable proton H3 [4]: -0.5 ppm/° C.
pH sensitivity, non-exchangeable proton H3 [4]: 3.6 ppm/pH unit
T sensitivity, non-exchangeable proton H6 [4]: 1.1 ppm/° C.
pH sensitivity, non-exchangeable proton H6 [4]: -3.9 ppm/pH unit

O=P(O)(O)CN1CCN(CP(=O)(O)O)CCN(CP(=O)(O)O)CC1.[Tm+3] [TmNOTP^3-]
Broadening (βc) [3]: 0.018 ppm/mM
Shiftability (Sc) [3]: -0.568 ppm/mM
T sensitivity, non-exchangeable proton A (@56) [2, 7]: 0.351 ppm/° C.
pH sensitivity, non-exchangeable proton A (@56) [2, 7]: -2.58 ppm/pH unit
T sensitivity, non-exchangeable proton B (@23) [2, 8]: 0.140 ppm/° C.
pH sensitivity, non-exchangeable proton B (@23) [2, 8]: -0.56 ppm/pH unit
T sensitivity, non-exchangeable proton C (@-20) [2, 9]: -0.250 ppm/° C.
pH sensitivity, non-exchangeable proton C (@-20) [2, 9]: 1.88 ppm/pH unit

Source: patent US20260356869A1, “TRANSITION METAL COMPLEXES FOR MRI APPLICATIONS AND METHODS OF USE” (Yale University, priority 2022, published 2026)
